Data set [1] relates to Rattus norvegicus. The note with it: oral.
Data set [2] deals with Rattus norvegicus. The note with it: for LEL: uterotrophic, Active.
Data set [3] concerns Rattus norvegicus. The note with it: acute; oral; gavage; albino.
For data set [4], the system named is Rattus norvegicus. The settings on record: subchronic; duration: 13 weeks; oral; diet; F; Fischer 344; Body Weight Changes: decrease + Histopathology: Bone marrow-Reticulum-cell hyperplasia Bone marrow-Myeloid depletion.
The subject of data set [5] is Mus musculus. The note with it: chronic; duration: 50 weeks; oral; drinking water; F; Swiss; body weight.
The mark [6] stands for this setting: reproduction developmental, gavage, F, Wistar, generation: F1, F1: body weight + F1: kidney: absolute kidney weight + F1: kidney: relative kidney weight + F1: liver: absolute liver weight + F1: liver: ….
Where [7] appears, read: reproduction developmental, gavage, F, Wistar, generation: P0, P0: body weight + P0: developmental toxicity.
Setting [8] is: reproduction developmental, gavage, M, Wistar, generation: F1, F1: body weight + F1: paternal toxicity.
The mark [9] stands for this setting: reproduction developmental, gavage, M, Wistar, generation: P0, P0: body weight + P0: developmental toxicity.
Where [10] appears, read: duration: 3 days, injection, subcutaneous.

The structures appear in SMILES notation. Where “and” joins values, the source holds several entries; their conditions need not be identical. Identical values can stand only once.

Take `CC(C)(c1ccc(OP(=O)(Oc2ccccc2)Oc2ccccc2)cc1)c1ccc(OP(=O)(Oc2ccccc2)Oc2ccccc2)cc1` [2,2-Bis[4-[bis(phenoxy)phosphoryloxy]phenyl]propane]: the NOEL in data set [1] (acute, duration: 14 days, gavage, F, Crl:CD(SD), body weight gain + toxicity) stood at 2000 mg/kg-day; in data set [1] (developmental, Sprague-Dawley, generation: F1, F1: embryotoxicity), 1000 mg/kg-day; in data set [1] (developmental, gavage, Crl:CD(SD), generation: F1, F1: embryotoxicity) it was 1000 mg/kg-day; in data set [1] (reproduction developmental, F, Sprague-Dawley, generation: P0, P0: maternal toxicity), 1000 mg/kg-day; in data set [1] (reproduction developmental, gavage, Crl:CD(SD), generation: F1, F1: fetotoxicity), 1000 mg/kg-day; in data set [1] (reproduction developmental, gavage, Crl:CD(SD), generation: F1, F1: toxicity), 1000 mg/kg-day. The NOEL in data set [1] (reproduction developmental, gavage, F, Crl:CD(SD), generation: P0, P0: body weight + P0: maternal toxicity) was determined as 1000 mg/kg-day; in data set [1] (reproduction developmental, gavage, F, Crl:CD(SD), generation: P0, P0: body weight gain + P0: maternal toxicity + P0: uterus: gravid uterine weight) it was 500 mg/kg-day; in data set [1] (reproduction developmental, gavage, F, Crl:CD(SD), generation: P0, P0: body weight gain + P0: ovary: ovary weight + P0: toxicity) it was 100 mg/kg-day; in data set [1] (reproduction developmental, gavage, F, Crl:CD(SD), generation: P0, P0: body weight gain + P0: toxicity), 1000 mg/kg-day; in data set [1] (reproduction developmental, gavage, F, Crl:CD(SD), generation: P0, P0: body weight gain + P0: uterus: Gravid uterus weight) it was 1000 mg/kg-day; in data set [1] (reproduction developmental, gavage, F, Crl:CD(SD), generation: P0, P0: toxicity) it was 1000 mg/kg-day. For the same molecule, the NOEL worked out at 100 mg/kg-day in data set [1] (setting [6]); 1000 mg/kg-day in data set [1] (reproduction developmental, gavage, F, Wistar, generation: F1, F1: toxicity); 100 mg/kg-day in data set [1] (setting [7]); 1000 mg/kg-day in data set [1] (reproduction developmental, gavage, F, Wistar, generation: P0, P0: maternal toxicity); 1000 mg/kg-day in data set [1] (reproduction developmental, gavage, F, Wistar, generation: P0, P0: toxicity); 1000 mg/kg-day in data set [1] (reproduction developmental, gavage, M/F, Crl:CD(SD), generation: F1, F1: body weight + F1: toxicity). Besides, the NOEL in data set [1] (reproduction developmental, gavage, M, Crl:CD(SD), generation: P0, P0: body weight gain + P0: kidney: kidney: absolute weight + P0: spleen: spleen weight + P0: toxicity) came out at 1000 mg/kg-day; in data set [1] (setting [8]) it was 100 mg/kg-day; in data set [1] (reproduction developmental, gavage, M, Wistar, generation: F1, F1: toxicity) it was 1000 mg/kg-day; in data set [1] (setting [9]), 100 mg/kg-day; in data set [1] (reproduction developmental, gavage, M, Wistar, generation: P0, P0: toxicity) it was 1000 mg/kg-day; in data set [1] (reproduction developmental, gavage, Wistar, generation: F1, F1: developmental toxicity), 1000 mg/kg-day. Also, the NOEL was 1860 mg/kg-day in data set [1] (short-term, duration: 28 days, diet, M, Sprague-Dawley, toxicity); 1000 mg/kg-day in data set [1] (short-term, duration: 28 days, gavage, F, Sprague-Dawley, body weight + toxicity); 1000 mg/kg-day in data set [1] (short-term, duration: 28 days, gavage, F, Sprague-Dawley, liver: absolute liver weight + ovary: ovary weight + toxicity); 1000 mg/kg-day in data set [1] (short-term, duration: 28 days, gavage, F, Sprague-Dawley, toxicity); 1000 mg/kg-day in data set [1] (short-term, duration: 28 days, gavage, M, Sprague-Dawley, body weight + toxicity); 1000 mg/kg-day in data set [1] (short-term, duration: 28 days, gavage, M, Sprague-Dawley, toxicity). For the same molecule, the NOEL in data set [1] (short-term, gavage, F, Sprague-Dawley, toxicity) stood at 1000 mg/kg-day; in data set [1] (short-term, gavage, M, Sprague-Dawley, toxicity), 1000 mg/kg-day; in data set [1] (subchronic, duration: 90 days, gavage, F, Crj:CD, body weight + toxicity), 1000 mg/kg-day; in data set [1] (subchronic, duration: 90 days, gavage, F, Sprague-Dawley, body weight + toxicity) it was 1000 mg/kg-day; in data set [1] (subchronic, duration: 90 days, gavage, M, Crj:CD, body weight + toxicity), 1000 mg/kg-day; in data set [1] (subchronic, duration: 90 days, gavage, M, Sprague-Dawley, body weight + toxicity), 1000 mg/kg-day. Besides, the NOEL in data set [1] (subchronic, gavage, F, Sprague-Dawley, toxicity) came to 1000 mg/kg-day; in data set [1] (subchronic, gavage, M, Sprague-Dawley, toxicity), 1000 mg/kg-day. Also, the LOEL in data set [1] (setting [6]), in data set [1] (setting [7]), in data set [1] (setting [8]) and in data set [1] (setting [9]) was 200 mg/kg-day in each case.
In turn, `C[C@H]1CCC[C@@H](O)CCC/C=C/c2cc(O)cc(O)c2C(=O)O1` [beta-Zearalenol] gave an LEL in data set [2] (duration: 3 days, oral) of 0.8 mg/day.
What is called LD50 is the dose at which mortality reaches 50%. Read a high LD50 as a less toxic substance. Turning to `CCCCCCCCc1ccc(O)cc1` [4-Octylphenol], the LEL in data set [2] (duration: 4 days, oral) is 100 mg/kg-day. Moreover, the 50% lethal dose (LD50) in data set [3] was 1100 mg/kg and 1200 mg/kg and 1400 mg/kg.
On to `CCCCCCC(=O)O[C@H]1CC[C@H]2[C@@H]3CCC4=CC(=O)CC[C@]4(C)[C@H]3CC[C@]12C` [Testosterone enanthate], for which the LOEL in data set [2] (Hershberger, duration: 10 days, oral, gavage, Sprague-Dawley, active + Androgenic + Negative + androgenic) worked out at 50 mg/kg-day.
Molecule `O=C1O[C@H]([C@@H](O)CO)C(O)=C1O` [L-Ascorbic acid] registered an LEL in data set [2] (duration: 20 days, injection, subcutaneous) of 25 mg/kg-day. Further, in data set [4], the NOEL is < 2400 mg/kg-day.
Consider `Nc1ncn[nH]1` [Amitrole], for which the NOEL in data set [2] (Hershberger, duration: 10 days, oral, gavage, Wistar, inactive + Negative + Negative + anti-androgenic + negative on gonad/AST / significant thyroid effects beginning at 25 / increased SV wt …) was determined as 125 mg/kg-day.
In the case of `CCCCC(CC)COC(=O)c1ccc(O)cc1` (stereo not drawn) [2-Ethylhexyl p-hydroxybenzoate], the LEL in data set [2] (setting [10]) was 200 mg/kg-day and 199 mg/kg-day.
In data set [2] (duration: 1 days, injection, subcutaneous), `Cc1c2ccccc2c(C)c2c1ccc1ccccc12` [7,12-Dimethylbenz(a)anthracene] showed an LEL of 15 mg/kg-day.
One may read the LOAEL as the lowest tested level that showed an adverse finding. Molecule `O=[N+]([O-])c1ccc(O)c([N+](=O)[O-])c1` [2,4-Dinitrophenol] came in with an LOAEL in data set [5] of 0.07 mg/kg-day.
For `CCOC(=O)c1ccc(O)cc1` [Ethylparaben], in data set [2] (setting [10]), the LEL stood at 180 mg/kg-day.

The values are drawn from EPA's ToxValDB 9.5.
